# From patent US10760110B2, “Antibiotic testing and screening system” (priority 2017, dated 2020)
# Read-outs that look alike come from different tables or passages of the source.
# Tests used:
# [1] = tested on: K. pneumoniae NVT1001 and its ΔompK35/36 and/or ΔramR mutants; experiment: Etest MIC, OmpK35/36 loss and AcrAB-TolC overexpression (ΔramR) strains (Table 6); assay type: cell-based, Klebsiella pneumoniae; conditions: Klebsiella pneumoniae
# Summary of the method: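 Ceftazidime and cefotaxime were tested by CLSI broth microdilution on the blaOXA-48 pACYC177 transformant of NVT1001, using CLSI 2017 breakpoints. Parent, porin-deleted (ΔompK35/36) and ΔramR strains were tested by Etest, with values between two-fold dilutions rounded up.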
# [2] = tested on: K. pneumoniae NVT1001 ΔramRΔompK35/36 mutant and its revertants; experiment: Etest MIC, ΔramRΔompK35/36 mutant and its revertants (Table 7); assay type: cell-based; conditions: Klebsiella pneumoniae
# [3] = ΔramRΔ35/36, ΔramRΔompK35/36 mutant
# [4] = ΔramRΔompK35/36::ompK35/36 revertant
# [5] = ΔramRΔompK35/36::ompK35 revertant
# [6] = ΔramRΔompK35/36::ompK36 revertant
# [7] = ΔramRΔompK35/36::ramR revertant
# [8] = ΔramRΔompK35/36::ramR::ompK35/36 revertant
# [9] = ΔramRΔompK35/36::ramR::ompK35 revertant
# [10] = ΔramRΔompK35/36::ramR::ompK36 revertant
Compound,"MIC ([1]; WT, NVT1001, read-out: MIC)","MIC ([1]; Δ35, ΔompK35 mutant)","MIC ([1]; Δ35/36, ΔompK35/36 mutant)","MIC ([1]; Δ36, ΔompK36 mutant)",MIC ([1]; ΔramR mutant),"MIC ([1]; ΔramRΔ35, ΔramRΔompK35 mutant)","MIC [1, 3]","MIC ([1]; ΔramRΔ36, ΔramRΔompK36 mutant)","MIC [2, 4]","MIC [2, 5]","MIC [2, 6]","MIC [2, 7]","MIC [2, 8]","MIC [2, 9]","MIC [2, 10]",MIC ([2]; ΔramRΔompK35/36 mutant)
"CCn1cc(C(=O)O)c(=O)c2ccc(C)nc21 [Nalidixic acid, nalidixic acid]",4 µg/mL,8 µg/mL,8 µg/mL,4 µg/mL,32 µg/mL,64 µg/mL,32 µg/mL,32 µg/mL,64 µg/mL,32 µg/mL,64 µg/mL,8 µg/mL,8 µg/mL,8 µg/mL,8 µg/mL,32 µg/mL
"CCn1cc(C(=O)O)c(=O)c2cc(F)c(N3CCNCC3)cc21 [Norfloxacin, norfloxacin]",0.25 µg/mL,0.25 µg/mL,0.5 µg/mL,0.25 µg/mL,2 µg/mL,2 µg/mL,2 µg/mL,2 µg/mL,2 µg/mL,2 µg/mL,2 µg/mL,0.5 µg/mL,0.25 µg/mL,0.25 µg/mL,0.25 µg/mL,2 µg/mL
"CC1COc2c(N3CCN(C)CC3)c(F)cc3c(=O)c(C(=O)O)cn1c23 (stereo not drawn) [Ofloxacin, ofloxacin]",0.25 µg/mL,0.25 µg/mL,0.25 µg/mL,0.25 µg/mL,2 µg/mL,2 µg/mL,2 µg/mL,2 µg/mL,2 µg/mL,2 µg/mL,2 µg/mL,0.25 µg/mL,0.25 µg/mL,0.25 µg/mL,0.25 µg/mL,2 µg/mL
